Key:
[1] = molecular target: T1, Recombinant human prolyl oligopeptidase (Homo sapiens, UniProt P48147); test: Determination of IC50- and Ki-values of PEP-inhibitors (chromogenic substrate Z-Gly-Pro-pNA); type: biochemical; details: substrate Z-Gly-Pro-pNA 0.15 mM, HEPES buffer pH 7.6, 30° C.; n.i. = no inhibition
T1 construct: made in house; host or cells: E. coli
T1 sequence (P48147 1-710): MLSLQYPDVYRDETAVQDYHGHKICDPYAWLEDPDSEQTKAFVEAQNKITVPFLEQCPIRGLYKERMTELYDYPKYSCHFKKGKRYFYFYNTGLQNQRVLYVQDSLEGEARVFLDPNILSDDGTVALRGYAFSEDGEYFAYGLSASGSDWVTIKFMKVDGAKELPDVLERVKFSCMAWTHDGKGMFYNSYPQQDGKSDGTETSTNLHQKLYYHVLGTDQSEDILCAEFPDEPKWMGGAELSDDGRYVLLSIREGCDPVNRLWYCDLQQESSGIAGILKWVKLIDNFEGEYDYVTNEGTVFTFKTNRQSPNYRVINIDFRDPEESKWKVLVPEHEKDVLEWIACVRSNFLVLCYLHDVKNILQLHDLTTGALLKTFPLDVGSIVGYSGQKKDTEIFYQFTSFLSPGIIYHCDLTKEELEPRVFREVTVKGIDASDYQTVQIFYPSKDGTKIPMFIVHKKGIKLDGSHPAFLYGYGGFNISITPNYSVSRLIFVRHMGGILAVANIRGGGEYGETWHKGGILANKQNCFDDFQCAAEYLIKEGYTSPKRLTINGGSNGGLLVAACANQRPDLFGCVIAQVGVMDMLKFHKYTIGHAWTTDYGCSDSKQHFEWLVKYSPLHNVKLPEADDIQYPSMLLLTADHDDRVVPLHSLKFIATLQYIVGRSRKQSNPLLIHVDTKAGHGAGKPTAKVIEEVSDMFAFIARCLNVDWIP
Method: Biological Evaluation, Determination of IC50- and Ki-Values of PEP-Inhibitors
Recombinant human prolyl oligopeptidase was used for measurement. Recombinant expression was performed in E. coli under standard conditions as described elsewhere in the state of the art.
For activity measurements the chromogenic substrate Z-Gly-Pro-pNA was used in HEPES buffer pH 7.6 containing 50 mM HEPES, 200 mM NaCl, 1 mM EDTA, 1 mM DTT, 0.006% Brij35. Measurements were carried out at 30° C. Release of pNA were monitored continuously at 405 nm.
IC50 values were calculated using non-linear regression to a 4-parameter equation (Prism 4.0, GraphPad).
For Ki determination 4 substrate (0.15 mM, 0.08 mM 0.04 mM, 0.02 mM) and 7 inhibitor concentrations in an appropriate range were used. Calculations were performed by multiple non-linear regression analysis to the equation for competitive inhibition using GraFit 5.0 Software (Erithacus Software).

human glial U-343 cells = test: IL-6 ELISA, basal secretion of IL-6; type: cell-based; details: inhibitor 20 μM, 24 hours, serum-free medium, untreated control = 100%, read-out: Extracellular IL-6 concentration, % of untreated cells
Method: To analyze basal secretion of IL-6, human glial U-343 cells were cultured in 6 well plates (1.5×10^6 cells/well, Greiner) and treated with specific PEP inhibitors as indicated (20 μM each) for 24 hours in serum-free D-MEM medium (invitrogen). Aliquots of 40 μl conditioned medium were used to quantify the amount of secreted IL-6 by an human-specific IL-6 ELISA (Biosource) following the manufacturer's instructions. All data were obtained in quadruplicate. For the calculation of the IL-6 concentration in the cell culture medium after PEP-inhibitor treatment, the basal IL-6 concentration of the cell culture medium of untreated cell samples was set to 100%. The results of the measurement of the IL-6 concentration with PEP-inhibitor treated cells are presented as % of the untreated cell samples.

U-343 and SH-SY5Y cells = test: β-Amyloid ELISA, secreted β-amyloid peptides 1-40 and 1-42; type: cell-based; details: Homo sapiens, inhibitor 20 μM, 24 hours, conditioned medium, untreated cells = 100%, cell line and peptide (1-40/1-42) not given, read-out: Extracellular Aβ-concentration, % of control
Method: The human glioma cell line, U-343 and the human neuroblastoma cell line, SH-SY5Y were maintained in Dulbecco's modified Eagle's medium (DMEM) containing 10% fetal bovine serum (Gibco BRL, Karlsruhe, Germany) and incubated at 37° C. in a 5% CO2 atmosphere. Culture media contained in general 60 μg/ml gentamycin (Gibco BRL, Karlsruhe, Germany).
To quantify intracellular and extracellular concentrations of 0-amyloid peptides, 1-40 and 1-42, U-343 and SH-SY5Y cells were cultured in 6 well plates (1.5×10^6 cells/well) and treated with specific PEP inhibitors (20 μM each) for 24 hours. For quantitation of secreted β-amyloid peptides the conditioned medium was collected and concentrated by lyophylisation. Likewise, after determination of the cell numbers/well (casy cell counter I, Schärfe System, Reutlingen, Germany), cells were lyzed with cell extraction buffer (Biosource, Solingen, Germany) according to the manufacturer's protocol. The protein concentration was determined by the method of Bradford (1976). Aliquots of 100 μl were used to quantify β-amyloid peptides 1-40 and 1-42 in quadruplicate by ELISA (IBL, Hamburg, Germany) following the manufacturer's instructions. All obtained intracellular and extracellular concentrations were normalized to cell numbers and protein concentration, respectively.
For the calculation of the concentration of β-amyloid peptides 1-40 and 1-42 in the cell culture medium after PEP-inhibitor treatment, the basal concentration of β-amyloid peptides 1-40 and 1-42 in the cell culture medium of untreated cell samples was set to 100%. The results of the measurement of the concentration of β-amyloid peptides 1-40 and 1-42 with PEP-inhibitor treated cells are presented as % of the untreated cell samples.

With `O=C(OCN1C(=O)c2ccccc2C1=O)c1ccccc1C(=O)c1cccs1` [Example 9] as the molecule, how does the IC50 [1] read?
The IC50 was “n.i”.

What about the activity at 20 µM (human glial U-343 cells) of the same molecule?
The activity at 20 µM was 124%.

What about the activity at 20 µM (U-343 and SH-SY5Y cells) of the same molecule?
The activity at 20 µM was 113%.

What does the source list for `COc1cccc(COC(=O)c2ccccc2C(=O)c2cccs2)c1` [Example 18]?
IC50 [1]: n.i.; activity at 20 µM (human glial U-343 cells): 63.3%; activity at 20 µM (U-343 and SH-SY5Y cells): 106%

— patent publication US7592467B2, “Inhibitors of prolyl endopeptidase” (Probiodrug AG, priority 2005, dated 2009)
